Results reported in US20090062401A1, “DECALINE-DERIVED COMPOUNDS AS […] ACTIVE AGENTS” (UNIVERSITAT DORTMUND, priority 2004, published 2009).
Like-named read-outs stand apart in the source and are kept apart here.

How the values were obtained:
11beta-HSD1 = 11beta-HSD1 (Homo sapiens, UniProt P28845); assay: biochemical; conditions: read-out: IC50 Target 11beta-HSD1
From the text: Assay protocols for Cdc25A, 11βHSD1, 11βHSD2, and AChE are described in detain in the publication of Koch M A, Wittenberg L O, Basu S, Jeyaraj D A, Gourzoulidou E, Reinecke K, Odermatt A, Waldmann H (Proc. Natl. Acad. Sci. U.S.A. 2004 Nov. 30; 101(48):16721-6) and in Koch M A et al., Proc. Natl. Acad. Sci. U.S.A. 2005 Nov. 29; 102 (48):17272-7.

MPTPA = MPTPA (Mycobacterium tuberculosis, UniProt P9WIA1); assay: MtPTPA phosphatase inhibition, general phosphatase assay using para-nitrophenylphosphate; type: biochemical
From the text: (§1) Assays protocols for the other enzymes mentioned herein (MtPTPA, PP1, VHR, PTP1B) are disclosed in Schweizer R A S, Atanasov, G A, Frey B M, and Odermatt A, Mol. Cell. Endocrinol. 2003, 212, 41-49 and Barratte, B., Meijer L., Galaktionov K. & Beach D, Anticancer Res. 1992, 12, 873-880. For determination of the phosphatase activity, a general phosphatase assay using para-nitrophenylphosphate was applied.

VHR = VHR (Homo sapiens, UniProt P51452); assay: VHR phosphatase inhibition, general phosphatase assay using para-nitrophenylphosphate; type: biochemical; conditions: read-out: IC50 Target VHR
From the text: as §1

PTP1B = target: T1, PTP1B (Homo sapiens, UniProt P18031); assay: PTP1B phosphatase inhibition, general phosphatase assay using para-nitrophenylphosphate; type: biochemical; conditions: read-out: IC50 Target PTP1B
T1 sequence (P18031 1-435): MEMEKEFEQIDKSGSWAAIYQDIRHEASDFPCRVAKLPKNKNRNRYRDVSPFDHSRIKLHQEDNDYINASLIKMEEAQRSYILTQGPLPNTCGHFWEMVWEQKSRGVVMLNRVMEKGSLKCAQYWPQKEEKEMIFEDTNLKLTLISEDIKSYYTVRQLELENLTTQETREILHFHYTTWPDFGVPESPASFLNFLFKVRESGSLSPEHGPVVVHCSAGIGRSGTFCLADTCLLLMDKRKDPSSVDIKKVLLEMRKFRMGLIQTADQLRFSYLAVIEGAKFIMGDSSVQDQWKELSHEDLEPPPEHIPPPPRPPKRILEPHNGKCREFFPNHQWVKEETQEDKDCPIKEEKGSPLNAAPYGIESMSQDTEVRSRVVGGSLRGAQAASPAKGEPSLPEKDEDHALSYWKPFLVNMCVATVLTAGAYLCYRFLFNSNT
From the text: as §1

Sequence of MPTPA (P9WIA1 whole entry): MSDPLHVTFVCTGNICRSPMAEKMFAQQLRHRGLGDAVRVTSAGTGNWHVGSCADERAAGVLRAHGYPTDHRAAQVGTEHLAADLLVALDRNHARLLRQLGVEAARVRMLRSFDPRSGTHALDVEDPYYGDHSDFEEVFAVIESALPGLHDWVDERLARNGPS
Sequence of 11beta-HSD1 (P28845 whole entry): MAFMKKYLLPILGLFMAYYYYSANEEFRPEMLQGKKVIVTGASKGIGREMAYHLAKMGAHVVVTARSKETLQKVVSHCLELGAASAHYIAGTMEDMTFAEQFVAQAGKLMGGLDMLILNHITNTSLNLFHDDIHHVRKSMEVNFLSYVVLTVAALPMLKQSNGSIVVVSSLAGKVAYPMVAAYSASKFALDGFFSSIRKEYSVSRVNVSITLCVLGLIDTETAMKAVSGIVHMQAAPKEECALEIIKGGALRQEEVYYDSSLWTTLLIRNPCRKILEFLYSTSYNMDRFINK
Sequence of VHR (P51452 whole entry, species assumed): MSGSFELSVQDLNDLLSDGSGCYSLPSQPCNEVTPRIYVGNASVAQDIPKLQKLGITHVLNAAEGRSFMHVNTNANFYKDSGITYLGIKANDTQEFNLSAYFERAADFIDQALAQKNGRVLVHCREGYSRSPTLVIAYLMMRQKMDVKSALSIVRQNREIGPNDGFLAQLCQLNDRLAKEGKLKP

Compound: CCc1ccc(/C=C2\C[C@@]3(C)C(=C(C)C2=O)CCC[C@@H]3O)c(C)c1 [Compound 23, (3E,4aS,5S)-3-(4-Ethyl-2-methylbenzyliden)-4,4a,5,6,7,8-hexahydro-5-hydroxy-1,4a-dimethylnaphthalen-2(3H)-one]
- IC50 (11beta-HSD1): < 10 µM

Compound: CCN(CC)C1CC[C@@]2(C)C(=C1C)CCC[C@@H]2O (stereo partly drawn) [Compound 388, (1S,8aS)-6-(Diethylamino)-1,2,3,4,6,7,8,8a-octahydro-5,8a-dimethylnaphthalen-1-ol]
- IC50 (MPTPA; read-out: IC50 Target MPTPA): 10 to 50 µM

Compound: C=C1C(C)=C2CCC[C@H](O)[C@@]2(C)C/C1=C\c1ccccc1 [Compound 97, (1S,7E,8aS)-7-Benzyliden-1,2,3,4,6,7,8,8a-octahydro-5,8a-dimethyl-6-methylennaphthalen-1-ol]
- IC50 (11beta-HSD1): < 10 µM

Compound: CC1=C2CCC[C@H](O)[C@@]2(C)C/C(=C\c2ccc(F)c(F)c2)C1=O [Compound 1, (3E,4aS,5S)-3-(3,4-Difluorbenzyliden)-4,4a,5,6,7,8-hexahydro-5-hydroxy-1,4a-dimethyl-naphthalen-2(3H)-one]
- IC50 (VHR): 10 to 50 µM
- IC50 (11beta-HSD1): < 10 µM

Compound: CC1=C2CCC[C@H](O)[C@@]2(C)C/C(=C\c2ccc(C#CC3CCCCC3)cc2)C1=O [Compound 73, (3E,4aS,5S)-3-[4-(2-Cyclohexyl-ethinyl)benzyliden]-4,4a,5,6,7,8-hexahydro-5-hydroxy-1,4a-dimethylnaphthalen-2(3H)-one]
- IC50 (11beta-HSD1): < 10 µM

Compound: CCCCCCCCCCC/C=C1\C[C@@]2(C)C(=C(C)C1=O)CCC[C@@H]2O [Compound 22, (3E,4aS,5S)-3-Dodecyliden-4,4a,5,6,7,8-hexahydro-5-hydroxy-1,4a-dimethylnaphthalen-2(3H)-one]
- IC50 (11beta-HSD1): < 10 µM

Compound: CC1=C2CCC[C@H](O)[C@@]2(C)C/C(=C\c2ccc(Br)cc2)C1=O [Compound 65, (3E,4aS,5S)-3-(4-Brombenzyliden)-4,4a,5,6,7,8-hexahydro-5-hydroxy-1,4a-dimethylnaphthalen-2(3H)-one]
- IC50 (11beta-HSD1): 10 to 50 µM

Compound: CC1=C2CCC[C@H](O)[C@@]2(C)CC(=Cc2ccc(C#CCN(C)C)cc2)C1=O [Compound 396, (4aS,5S)-3-[4-(3-Dimethylamino-prop-1-ynyl)-benzylidene]-5-hydroxy-1,4a-dimethyl-4,4a,5,6,7,8-hexahydro-3H-naphthalen-2-one]
- IC50 (VHR): 10 to 50 µM
- IC50 (MPTPA): 10 to 50 µM
- IC50 (PTP1B): 10 to 50 µM

Compound: COc1ccc(/C=C2\C[C@@]3(C)C(=C(C)C2=O)CCC[C@@H]3O)c(O)c1 [Compound 14, (3E,4aS,5S)-3-(2-Hydroxy-4-methoxybenzyliden)-4,4a,5,6,7,8-hexahydro-5-hydroxy-1,4a-dimethylnaphthalen-2(3H)-one]
- IC50 (11beta-HSD1): < 10 µM

Compound: CC1=C(/C=C2\C[C@@]3(C)C(CCC[C@@H]3O)C(C)C2=O)NCC1 (stereo partly drawn) [Compound 158, (3E,4aS,5S)-Octahydro-3-[(4,5-dihydro-3-methyl-1H-pyrrol-2-yl)methylen]-5-hydroxy-1,4a-dimethylnaphthalen-2(1H)-one]
- IC50 (VHR): 10 to 50 µM
- IC50 (MPTPA; read-out: IC50 Target MPTPA): 10 to 50 µM
- IC50 (PTP1B): 10 to 50 µM

Compound: CC1=C2CCC[C@H](O)[C@@]2(C)CCC1=O [Compound 413, (4aS,5S)-5-Hydroxy-1,4a-dimethyl-4,4a,5,6,7,8-hexahydro-3H-naphthalen-2-one]
- IC50 (VHR): 10 to 50 µM
- IC50 (MPTPA; read-out: IC50 Target MPTPA): 10 to 50 µM
- IC50 (PTP1B): 10 to 50 µM

Compound: CCC(c1ccc(I)cc1)C1C[C@@]2(C)C(=C(C)C1=O)CCC[C@@H]2O (stereo partly drawn) [Compound 412, (4aS,5S)-5-Hydroxy-3-[1-(4-iodo-phenyl)-propyl]-1,4a-dimethyl-4,4a,5,6,7,8-hexahydro-3H-naphthalen-2-one]
- IC50 (VHR): 10 to 50 µM
- IC50 (MPTPA; read-out: IC50 Target MPTPA): 10 to 50 µM
- IC50 (PTP1B): 10 to 50 µM

Compound: C=C1C(C)=C2CCC[C@H](O)[C@@]2(C)C/C1=C\CCCC [Compound 98, (1S,7E,8aS)-1,2,3,4,6,7,8,8a-Octahydro-5,8a-dimethyl-6-methylen-7-pentylidennaphthalen-1-ol]
- IC50 (11beta-HSD1): < 10 µM

Compound: CCCCCCCCCCCCC#Cc1ccc(/C=C2\C[C@@]3(Cc4ccccc4)C(=C(C)C2=O)CCC[C@@H]3O)cc1 [Compound 134, (3E,4aS,5S)-3-[4-(Tetradec-1-inyl)benzyliden]-4a-benzyl-4,4a,5,6,7,8-hexahydro-5-hydroxy-1-methylnaphthalen-2(3H)-one]
- IC50 (VHR): 10 to 50 µM
- IC50 (MPTPA; read-out: IC50 Target MPTPA): 10 to 50 µM

Compound: CCCCCCCCCCCCCCC#Cc1ccc(/C=C2\C[C@@]3(C)C(CCC[C@@H]3O)C(C)C2=O)cc1 (stereo partly drawn) [Compound 127, (E,4aS,5S)-3-[4-(Hexadec-1-inyl)benzyliden]-octahydro-5-hydroxy-1,4a-dimethylnaphthalen-2(1H)-one]
- IC50 (VHR): 10 to 50 µM
- IC50 (MPTPA; read-out: IC50 Target MPTPA): 10 to 50 µM

Compound: CCCCCCCCCC#Cc1ccc(/C=C2\C[C@@]3(C)C(CCC[C@@H]3O)C(C)C2=O)cc1 (stereo partly drawn) [Compound 131, (E,4aS,5S)-3-[4-(Undec-1-inyl)benzyliden]-octahydro-5-hydroxy-1,4a-dimethylnaphthalen-2(1H)-one]
- IC50 (VHR): 10 to 50 µM
- IC50 (MPTPA; read-out: IC50 Target MPTPA): 10 to 50 µM

Compound: CC1(Cc2cc(Br)cc(Br)c2)C(=O)/C(=C/c2ccc(I)cc2)CC2(C)C1CCCC21OCCO1 (stereo not drawn) [Compound 416, (7′E)-5′-(3,5-Dibromobenzyl)-7′-(4-iodo-benzylidene)-5′,8a′-dimethylhexahydro-2′H-spiro[1,3-dioxolane-2,1′-naphthalen]-6′(5′H)-one]
- IC50 (PTP1B): 10 to 50 µM
- IC50 (11beta-HSD1): < 10 µM

Compound: CCCCCCCCCCCCCCC#Cc1ccc(/C=C2\C[C@@]3(Cc4ccccc4)C(=C(C)C2=O)CCC[C@@H]3O)cc1 [Compound 128, (3E,4aS,5S)-3-[4-(Hexadec-1-inyl)benzyliden]-4a-benzyl-4,4a,5,6,7,8-hexahydro-5-hydroxy-1-methylnaphthalen-2(3H)-one]
- IC50 (VHR): 10 to 50 µM
- IC50 (MPTPA; read-out: IC50 Target MPTPA): 10 to 50 µM

Compound: CCCC#Cc1ccc(/C=C2\C[C@@]3(Cc4ccccc4)C(=C(C)C2=O)CCC[C@@H]3O)cc1 [Compound 130, (3E,4aS,5S)-3-[4-(Pent-1-inyl)benzyliden]-4a-benzyl-4,4a,5,6,7,8-hexahydro-5-hydroxy-1-methylnaphthalen-2(3H)-one]
- IC50 (VHR): 10 to 50 µM
- IC50 (MPTPA; read-out: IC50 Target MPTPA): 10 to 50 µM

Compound: CC1C=CCC2CCCC(=O)C12 (stereo not drawn) [Compound 407, 8-Methyl-3,4,4a,5,8,8a-hexahydro-2H-naphthalen-1-one]
- IC50 (11beta-HSD1): < 10 µM

Compound: CC1=C2CCC[C@H](O)[C@@]2(C)CC(=Cc2ccc(NC3CCCCC3)cc2)C1=O [Compound 399, (4aS,5S)-3-(4-Cyclohexylamino-benzylidene)-5-hydroxy-1,4a-dimethyl-4,4a,5,6,7,8-hexahydro-3H-naphthalen-2-one]
- IC50 (11beta-HSD1): < 10 µM

Compound: CCCCCCCCCCCCC#Cc1ccc(/C=C2\C[C@@]3(C)C(CCC[C@@H]3O)C(C)C2=O)cc1 (stereo partly drawn) [Compound 133, (E,4aS,5S)-3-[4-(Tetradec-1-inyl)benzyliden]-octahydro-5-hydroxy-1,4a-dimethylnaphthalen-2(1H)-one]
- IC50 (VHR): 10 to 50 µM
- IC50 (MPTPA; read-out: IC50 Target MPTPA): 10 to 50 µM

Compound: C=C(C)C#Cc1ccc(/C=C2\C[C@@]3(C)C(=C(C)C2=O)CCC[C@@H]3O)cc1 [Compound 56, (3E,4aS,5S)-3-[4-(3-Methylbut-3-en-1-inyl)benzyliden]-4,4a,5,6,7,8-hexahydro-5-hydroxy-1,4a-dimethylnaphthalen-2(3H)-on]
- IC50 (VHR): 10 to 50 µM
- IC50 (MPTPA): 10 to 50 µM
- IC50 (PTP1B): 10 to 50 µM

Compound: CC1=C2CCC[C@H](O)[C@@]2(C)C/C(=C\c2cccnc2)C1=O [Compound 10, (3E,4aS,5S)-4,4a,5,6,7,8-Hexahydro-5-hydroxy-1,4a-dimethyl-3-[(pyridin-3-yl)methylen]naphthalen-2(3H)-one]
- IC50 (11beta-HSD1): < 10 µM

Compound: CSc1ccc(/C=C2\C[C@@]3(C)C(=C(C)C2=O)CCC[C@@H]3O)cc1 [Compound 11, (3E,4aS,5S)-3-[4-(Methylthio)benzyliden]-4,4a,5,6,7,8-hexahydro-5-hydroxy-1,4a-dimethylnaphthalen-2(3H)-one]
- IC50 (11beta-HSD1): < 10 µM

Compound: CCCCCCC#Cc1ccc(/C=C2\C[C@@]3(C)C(CCC[C@@H]3O)C(C)C2=O)cc1 (stereo partly drawn) [Compound 125, (E,4aS,5S)-3-[4-(Oct-1-inyl)-benzyliden]-octahydro-5-hydroxy-1,4a-dimethylnaphthalen-2(1H)-one]
- IC50 (VHR): 10 to 50 µM
- IC50 (MPTPA; read-out: IC50 Target MPTPA): 10 to 50 µM
